# Measured values as given in ChEMBL document CHEMBL1128274, “6-Aminoquinolones: a new class of quinolone antibacterials?” (1995).
# How the values were obtained:
# Assay type in all cases: functional
# [1] = tested on: Enterococcus faecalis; assay: Tested in vitro for inhibitory activity against gram positive bacteria Streptococcus faecalis LEP Br strain
# [2] = tested on: Staphylococcus epidermidis; assay: Tested in vitro for inhibitory activity against gram positive bacteria Staphylococcus epidermidis CPHL A2 strain
# [3] = tested on: Providencia stuartii; assay: Tested in vitro for inhibitory activity against gram negative bacteria Providencia stuartii CNUR 5 strain
# [4] = tested on: Shigella; assay: Tested in vitro for inhibitory activity against gram negative bacteria Shigella enteritidis
# [5] = tested on: Staphylococcus aureus; assay: Tested in vitro for inhibitory activity against gram positive bacteria Staphylococcus aureus ATCC 6538 strain
# [6] = tested on: Enterobacter cloacae; assay: Tested in vitro for inhibitory activity against gram negative bacteria Enterobacter cloacae OMNFI 174 strain.
# [7] = tested on: Pseudomonas aeruginosa; assay: Tested in vitro for inhibitory activity against gram negative bacteria Pseudomonas aeruginosa ATCC 9027 strain
# [8] = tested on: Escherichia coli; assay: Tested in vitro for inhibitory activity against gram negative bacteria Escherichia coli ISF 432 strain.
# [9] = tested on: Escherichia coli; assay: Tested in vitro for inhibitory activity against gram negative bacteria Escherichia coli ATCC 8739 strain
# [10] = tested on: Staphylococcus aureus; assay: Tested in vitro for inhibitory activity against gram positive bacteria Staphylococcus aureus MPR 5 strain
# [11] = tested on: Acinetobacter calcoaceticus; assay: Tested in vitro for inhibitory activity against gram negative bacteria Acinetobacter calcoaceticus OSMPV 113 strain.
# [12] = tested on: Klebsiella pneumoniae; assay: Tested in vitro for inhibitory activity against gram negative bacteria Klebsiella pneumoniae ATCC 10031 strain
# [13] = tested on: Staphylococcus epidermidis; assay: Tested in vitro for inhibitory activity against gram positive bacteria Staphylococcus epidermidis HCF berset C strain
# [14] = tested on: Escherichia coli; assay: Tested in vitro for inhibitory activity against gram negative bacteria Escherichia coli ATCC 8739 cell lines at 25 ug/mL
# [15] = tested on: Escherichia coli; assay: Tested in vitro for inhibitory activity against gram negative bacteria Escherichia coli ISF 432 cell lines at 25 ug/mL
SMILES,MIC [1],MIC [2],MIC [3],MIC [4],MIC [5],MIC [6],MIC [7],MIC [8],MIC [9],MIC [10],MIC [11],MIC [12],MIC [13],MIC [14],MIC [15]
CC(C)(C)n1cc(C(=O)O)c(=O)c2cc(N)c(N3CCCC3)cc21,128 µg/mL,8 µg/mL,64 µg/mL,32 µg/mL,4 µg/mL,16 µg/mL,64 µg/mL,0.12 µg/mL,0.12 µg/mL,8 µg/mL,16 µg/mL,0.12 µg/mL,8 µg/mL,–,–
NCCN1CCN(c2cc3c(cc2N)c(=O)c(C(=O)O)cn3C2CC2)CC1,128 µg/mL,64 µg/mL,128 µg/mL,2 µg/mL,128 µg/mL,2 µg/mL,32 µg/mL,0.5 µg/mL,0.5 µg/mL,128 µg/mL,32 µg/mL,0.5 µg/mL,32 µg/mL,–,–
NCCSc1cc2c(cc1N)c(=O)c(C(=O)O)cn2C1CC1,128 µg/mL,128 µg/mL,128 µg/mL,128 µg/mL,128 µg/mL,128 µg/mL,128 µg/mL,1 µg/mL,1 µg/mL,128 µg/mL,128 µg/mL,2 µg/mL,128 µg/mL,–,–
O=C(O)c1cn(C2CC2)c2c(F)c(N3CCSCC3)c(F)cc2c1=O,0.5 µg/mL,0.06 µg/mL,0.12 µg/mL,0.25 µg/mL,0.03 µg/mL,0.25 µg/mL,1 µg/mL,0.008 µg/mL,0.01 µg/mL,0.03 µg/mL,1 µg/mL,0.008 µg/mL,0.06 µg/mL,–,–
CC(C)(C)n1cc(C(=O)O)c(=O)c2cc(N)c(N3CCc4ccccc43)cc21,64 µg/mL,4 µg/mL,4 µg/mL,8 µg/mL,2 µg/mL,8 µg/mL,32 µg/mL,0.12 µg/mL,0.12 µg/mL,2 µg/mL,8 µg/mL,0.12 µg/mL,4 µg/mL,–,–
CC(C)(C)n1cc(C(=O)O)c(=O)c2cc(N)c(N3CCc4ccccc4C3)cc21,8 µg/mL,0.5 µg/mL,4 µg/mL,8 µg/mL,0.25 µg/mL,8 µg/mL,32 µg/mL,0.12 µg/mL,0.12 µg/mL,0.5 µg/mL,2 µg/mL,0.12 µg/mL,1 µg/mL,–,–
CN1CCN(c2cc3c(cc2N)c(=O)c(C(=O)O)cn3C(C)(C)C)CC1,32 µg/mL,2 µg/mL,4 µg/mL,1 µg/mL,2 µg/mL,1 µg/mL,4 µg/mL,–,–,2 µg/mL,4 µg/mL,0.06 µg/mL,4 µg/mL,0.06 µg/mL,0.06 µg/mL
CN1CCN(c2c(F)c(N)c3c(=O)c(C(=O)O)cn(C4CC4)c3c2F)CC1,0.5 µg/mL,0.12 µg/mL,0.06 µg/mL,0.03 µg/mL,0.06 µg/mL,0.03 µg/mL,0.25 µg/mL,0.002 µg/mL,0.004 µg/mL,0.06 µg/mL,0.05 µg/mL,0.002 µg/mL,0.25 µg/mL,–,–
Nc1cc2c(=O)c(C(=O)O)cn(C3CC3)c2cc1N1CCC(N)C1 (stereo not drawn),128 µg/mL,128 µg/mL,128 µg/mL,16 µg/mL,128 µg/mL,16 µg/mL,16 µg/mL,0.5 µg/mL,1 µg/mL,128 µg/mL,128 µg/mL,1 µg/mL,128 µg/mL,–,–
CC(=O)NC1CCN(c2cc3c(cc2N)c(=O)c(C(=O)O)cn3C2CC2)C1 (stereo not drawn),128 µg/mL,128 µg/mL,128 µg/mL,128 µg/mL,128 µg/mL,128 µg/mL,128 µg/mL,4 µg/mL,4 µg/mL,128 µg/mL,128 µg/mL,4 µg/mL,128 µg/mL,–,–
Nc1cc2c(=O)c(C(=O)O)cn(C3CC3)c2cc1N1CCSC1,128 µg/mL,64 µg/mL,128 µg/mL,32 µg/mL,64 µg/mL,16 µg/mL,128 µg/mL,1 µg/mL,0.5 µg/mL,128 µg/mL,128 µg/mL,0.5 µg/mL,64 µg/mL,–,–
CN1CCN(c2nc3c(cc2N)c(=O)c(C(=O)O)cn3C2CC2)CC1,32 µg/mL,4 µg/mL,2 µg/mL,0.12 µg/mL,4 µg/mL,0.12 µg/mL,2 µg/mL,–,–,4 µg/mL,4 µg/mL,0.03 µg/mL,4 µg/mL,0.12 µg/mL,0.03 µg/mL
O=C(O)c1cn(C2CC2)c2cc(N3CCNCC3)c(F)cc2c1=O [CIPROFLOXACIN],0.5 µg/mL,0.06 µg/mL,0.06 µg/mL,0.03 µg/mL,0.12 µg/mL,–,0.06 µg/mL,–,–,0.12 µg/mL,0.06 µg/mL,0.03 µg/mL,0.12 µg/mL,–,–
CC1CN(c2cc3c(cc2N)c(=O)c(C(=O)O)cn3C2CC2)CCN1 (stereo not drawn),32 µg/mL,4 µg/mL,16 µg/mL,0.25 µg/mL,16 µg/mL,0.25 µg/mL,2 µg/mL,0.03 µg/mL,0.03 µg/mL,16 µg/mL,16 µg/mL,0.03 µg/mL,4 µg/mL,–,–
CN1CCN(c2c(N)cc3c(=O)c(C(=O)O)cn(C4CC4)c3c2F)CC1,64 µg/mL,4 µg/mL,4 µg/mL,0.25 µg/mL,4 µg/mL,0.25 µg/mL,2 µg/mL,–,–,4 µg/mL,8 µg/mL,0.05 µg/mL,8 µg/mL,1 µg/mL,0.05 µg/mL
Nc1cc2c(=O)c(C(=O)O)cn(C3CC3)c2cc1N1CCC(O)CC1,8 µg/mL,2 µg/mL,8 µg/mL,2 µg/mL,4 µg/mL,2 µg/mL,8 µg/mL,0.03 µg/mL,0.03 µg/mL,4 µg/mL,2 µg/mL,0.03 µg/mL,4 µg/mL,–,–
CN1CCN(c2nc3c(c(N)c2N)c(=O)c(C(=O)O)cn3C2CC2)CC1,8 µg/mL,2 µg/mL,0.5 µg/mL,0.25 µg/mL,2 µg/mL,0.25 µg/mL,8 µg/mL,0.01 µg/mL,0.25 µg/mL,2 µg/mL,0.5 µg/mL,0.01 µg/mL,2 µg/mL,–,–
C[C@@H]1CN(c2cc3c(cc2N)c(=O)c(C(=O)O)cn3C2CC2)C[C@H](C)N1,32 µg/mL,2 µg/mL,4 µg/mL,0.25 µg/mL,8 µg/mL,0.5 µg/mL,2 µg/mL,0.03 µg/mL,0.03 µg/mL,8 µg/mL,8 µg/mL,0.03 µg/mL,4 µg/mL,–,–
Nc1cc2c(=O)c(C(=O)O)cn(C3CC3)c2cc1N1CCNCC1,128 µg/mL,16 µg/mL,32 µg/mL,0.5 µg/mL,64 µg/mL,0.25 µg/mL,2 µg/mL,0.03 µg/mL,0.25 µg/mL,64 µg/mL,16 µg/mL,0.25 µg/mL,16 µg/mL,–,–
N#CCN1CCN(c2cc3c(cc2N)c(=O)c(C(=O)O)cn3C2CC2)CC1,–,64 µg/mL,2 µg/mL,32 µg/mL,64 µg/mL,2 µg/mL,64 µg/mL,2 µg/mL,4 µg/mL,64 µg/mL,64 µg/mL,2 µg/mL,64 µg/mL,–,–
Nc1cc2c(=O)c(C(=O)O)cn(C3CC3)c2cc1N1CCCC1,128 µg/mL,128 µg/mL,128 µg/mL,16 µg/mL,128 µg/mL,8 µg/mL,128 µg/mL,0.25 µg/mL,0.25 µg/mL,128 µg/mL,128 µg/mL,0.25 µg/mL,128 µg/mL,–,–
CN1CCN(c2cc3c(cc2N)c(=O)c(C(=O)O)cn3-c2ccc(F)cc2)CC1,64 µg/mL,8 µg/mL,4 µg/mL,4 µg/mL,8 µg/mL,4 µg/mL,8 µg/mL,0.12 µg/mL,0.12 µg/mL,4 µg/mL,16 µg/mL,0.12 µg/mL,8 µg/mL,–,–
Nc1cc2c(=O)c(C(=O)O)cn(-c3ccc(F)cc3)c2cc1N1CCSCC1,128 µg/mL,4 µg/mL,4 µg/mL,4 µg/mL,0.5 µg/mL,4 µg/mL,128 µg/mL,0.03 µg/mL,0.06 µg/mL,1 µg/mL,4 µg/mL,0.03 µg/mL,4 µg/mL,–,–
CC(C)(C)n1cc(C(=O)O)c(=O)c2cc(N)c(N3CCN(c4ccccn4)CC3)cc21,16 µg/mL,1 µg/mL,128 µg/mL,64 µg/mL,1 µg/mL,64 µg/mL,128 µg/mL,0.5 µg/mL,0.5 µg/mL,1 µg/mL,1 µg/mL,0.25 µg/mL,2 µg/mL,–,–
